Each block holds one molecule with its values, some of them ahead of it. Active and inactive are the calls of the source. The rule behind the calls is not given here.
Tests used:
MCF7 [1] = experiment: Cytotoxicity against human MCF7 cells assessed as increase in extra cellular LDH at 2.5 to 5 uM incubated for 30 hrs by spectrophotometric based LDH assay; assay type: functional, cell-based
MCF7 [2] = experiment: Antiproliferative activity against human MCF7 cells incubated for 30 hrs by hematoxylin staining based BrdU incorporation assay; assay type: functional, cell-based
MCF7 [3] = experiment: Cytotoxicity against human MCF7 cells at 2.5 to 5 uM incubated for 30 hrs by MTT assay; assay type: functional, cell-based
MCF7 [4] = experiment: Antiproliferative activity against human MCF7 cells assessed as increase in PARP1-89 protein expression at 5 uM incubated for 30 hrs by Western blot analysis; assay type: functional, cell-based
MCF7 [5] = experiment: Inhibition of cell migration in human MCF7 cells incubated for 30 hrs by scratch wound assay; assay type: functional, cell-based
[6] = target: Poly [ADP-ribose] polymerase 1 (Homo sapiens, UniProt P09874); experiment: Inhibition of recombinant human full length N-terminal GST- tagged PARP1 expressed in baculovirus infected sf9 cells using Colorimetric HRP as substrate incubated for 30 mins by UV/Vis spectrophotometer analysis
MCF7 [7] = experiment: Inhibition of cell migration in human MCF7 cells at 2.5 to 5 uM incubated for 30 hrs by scratch wound assay relative to control; assay type: functional

Chain of Poly [ADP-ribose] polymerase 1 (P09874 whole entry): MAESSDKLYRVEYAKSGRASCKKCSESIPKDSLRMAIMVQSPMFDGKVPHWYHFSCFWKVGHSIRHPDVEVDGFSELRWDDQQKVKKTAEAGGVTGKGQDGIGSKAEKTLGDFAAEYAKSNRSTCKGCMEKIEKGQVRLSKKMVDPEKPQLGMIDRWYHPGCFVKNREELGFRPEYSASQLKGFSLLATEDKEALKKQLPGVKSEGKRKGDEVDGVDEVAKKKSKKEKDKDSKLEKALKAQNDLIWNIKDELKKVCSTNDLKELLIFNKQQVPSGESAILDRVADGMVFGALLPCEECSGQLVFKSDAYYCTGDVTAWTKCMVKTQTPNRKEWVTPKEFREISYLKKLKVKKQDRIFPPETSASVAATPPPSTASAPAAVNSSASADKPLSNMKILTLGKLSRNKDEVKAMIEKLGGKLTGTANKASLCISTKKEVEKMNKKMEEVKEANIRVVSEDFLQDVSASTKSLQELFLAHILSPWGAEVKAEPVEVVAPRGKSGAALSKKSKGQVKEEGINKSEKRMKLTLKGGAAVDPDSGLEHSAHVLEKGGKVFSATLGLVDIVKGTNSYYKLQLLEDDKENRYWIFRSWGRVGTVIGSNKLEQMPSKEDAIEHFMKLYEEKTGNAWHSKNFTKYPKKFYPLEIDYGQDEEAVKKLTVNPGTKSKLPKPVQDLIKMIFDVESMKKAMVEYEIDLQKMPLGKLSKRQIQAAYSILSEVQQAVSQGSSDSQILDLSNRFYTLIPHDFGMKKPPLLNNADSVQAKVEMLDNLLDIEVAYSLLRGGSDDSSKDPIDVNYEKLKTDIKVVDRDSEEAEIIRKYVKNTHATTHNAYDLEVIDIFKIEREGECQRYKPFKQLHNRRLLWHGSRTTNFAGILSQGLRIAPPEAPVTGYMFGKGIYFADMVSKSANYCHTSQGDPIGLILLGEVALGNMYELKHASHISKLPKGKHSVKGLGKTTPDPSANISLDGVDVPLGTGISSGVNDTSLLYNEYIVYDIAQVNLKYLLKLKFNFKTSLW

Compound: C=CCSc1nnc(-c2cc3ccccc3[nH]2)n1-c1ccccc1
Activity (MCF7 [1]): Active
Activity (MCF7 [2]): Dose-dependent effect
Activity (MCF7 [3]): Active
Activity (MCF7 [4]): Active
inhibition (MCF7 [5]): Dose-dependent effect
IC50 [6]: 2.4 µM
inhibition (INH) (MCF7 [7]): 30 - 40%

Compound: S=c1[nH]nc(CSc2nnc(-c3cc4ccccc4[nH]3)n2-c2ccccc2)n1-c1ccccc1
Activity (MCF7 [1]): Active
IC50 [6]: 8.08 µM

Compound: CC(=O)OC[C@H]1O[C@@H](Sc2nnc(-c3cc4ccccc4[nH]3)n2-c2ccccc2)[C@H](OC(C)=O)[C@@H](OC(C)=O)[C@@H]1OC(C)=O
Activity (MCF7 [1]): Active
Activity (MCF7 [2]): Dose-dependent effect
Activity (MCF7 [3]): Active
Activity (MCF7 [4]): inactive
IC50 [6]: 2.22 µM
inhibition (MCF7 [7]): inactive

Compound: O=C(c1cc(Cc2n[nH]c(=O)c3ccccc23)ccc1F)N1CCN(C(=O)C2CC2)CC1
Activity (MCF7 [3]): Active

Further molecules by falling IC50 [6], results first:

IC50 [6]: 2.1 µM
Compound: S=c1[nH]nc(-c2cc3ccccc3[nH]2)n1-c1ccccc1
Activity (MCF7 [1]): Active
Activity (MCF7 [2]): Dose-dependent effect
Activity (MCF7 [3]): Active
Activity (MCF7 [4]): Active
inhibition (MCF7 [5]): Dose-dependent effect
inhibition (INH) (MCF7 [7]): 30 - 40%

IC50 [6]: 0.35 µM
Compound: C=CCSc1nnc(-c2cc3ccccc3n2CC=C)n1-c1ccccc1
Activity (MCF7 [1]): Active
Activity (MCF7 [2]): Dose-dependent effect
Activity (MCF7 [3]): Active
Activity (MCF7 [4]): Active
inhibition (MCF7 [5]): Dose-dependent effect
inhibition (INH) (MCF7 [7]): 30 - 40%

IC50 [6]: 0.33 µM
Compound: CC(O)CSc1nnc(-c2cc3ccccc3[nH]2)n1-c1ccccc1 (configuration not stated)
Activity (MCF7 [1]): Active

— ChEMBL document CHEMBL4359897, “Discovery of novel functionalized 1,2,4-triazoles as PARP-1 inhibitors in breast cancer: Design, synthesis and antitumor activity evaluation” (Eur J Med Chem, 2019)
